Experiments:
Test in all cases: relative viability (nuclei count vs DMSO), 5 days (fraction); higher = more cells survive
[1] = compound: CN1CCN(c2ccc3nc(-c4c(N)c5c(F)cccc5[nH]c4=O)[nH]c3c2)CC1 [Dovitinib] + CC(C)C[C@H](NC(=O)[C@H](Cc1ccccc1)NC(=O)c1cnccn1)B(O)O [Bortezomib] (partner 0.002 µM)
In short: (§1)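 Medians of duplicate plates are given as relative viability. That measure is the nuclei count in treated wells divided by the count in vehicle wells. Counts were taken on 4× images of lung cancer cell lines in 1536-well plates, 5 days after pin-tool dosing the day after seeding with one drug alone or a fixed anchor-drug dose plus five library-drug doses (not always all listed) in √10 steps.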

[2] = compound: CN1CCN(c2ccc3nc(-c4c(N)c5c(F)cccc5[nH]c4=O)[nH]c3c2)CC1 [Dovitinib] + CC1(C)CCC(c2ccc(Cl)cc2)=C(CN2CCN(c3ccc(C(=O)NS(=O)(=O)c4ccc(N[C@H](CCN5CCOCC5)CSc5ccccc5)c(S(=O)(=O)C(F)(F)F)c4)cc3)CC2)C1 [Navitoclax] (partner 0.5 µM)
In short: as §1

[3] = compound: CN1CCN(c2ccc3nc(-c4c(N)c5c(F)cccc5[nH]c4=O)[nH]c3c2)CC1 [Dovitinib] + Cc1nc(Nc2ncc(C(=O)Nc3c(C)cccc3Cl)s2)cc(N2CCN(CCO)CC2)n1 [Dasatinib] (partner 0.075 µM)
In short: as §1

[4] = compound: CN1CCN(c2ccc3nc(-c4c(N)c5c(F)cccc5[nH]c4=O)[nH]c3c2)CC1 [Dovitinib] + CCNC(=O)c1noc(-c2cc(C(C)C)c(O)cc2O)c1-c1ccc(CN2CCOCC2)cc1 [Luminespib] (partner 0.01 µM)
In short: as §1

Cell Line | relative viability ([1]; first compound 0.02 µM) | relative viability ([1]; first compound 0.06325 µM) | relative viability ([1]; first compound 0.2 µM) | relative viability ([1]; first compound 0.6325 µM) | relative viability ([1]; first compound 2 µM) | relative viability ([2]; first compound 0.02 µM) | relative viability ([2]; first compound 0.06325 µM) | relative viability ([2]; first compound 0.2 µM) | relative viability ([2]; first compound 0.6325 µM) | relative viability ([2]; first compound 2 µM) | relative viability ([3]; first compound 0.02 µM) | relative viability ([3]; first compound 0.06325 µM) | relative viability ([3]; first compound 0.2 µM) | relative viability ([3]; first compound 0.6325 µM) | relative viability ([3]; first compound 2 µM) | relative viability ([4]; first compound 0.02 µM) | relative viability ([4]; first compound 0.06325 µM) | relative viability ([4]; first compound 0.2 µM) | relative viability ([4]; first compound 0.6325 µM) | relative viability ([4]; first compound 2 µM)
NCI-H2085 | 1.05 | 1.1 | 1.03 | 1.21 | 1.06 | 1.05 | 1.09 | 1.08 | 1.07 | 1.1 | 0.234 | 0.261 | 0.235 | 0.248 | 0.319 | 0.41 | 0.457 | 0.485 | 0.495 | 0.484
NCI-H2087 | 0.756 | 1.07 | 0.805 | 0.899 | 0.86 | 1.07 | 0.941 | 1.01 | 1.07 | 0.981 | 0.836 | 0.847 | 0.869 | 0.889 | 0.98 | 0.148 | 0.155 | 0.184 | 0.212 | 0.137
NCI-H2126 | 1.11 | 1.09 | 1.2 | 1.08 | 1.07 | 0.857 | 0.886 | 0.874 | 0.81 | 0.873 | 0.599 | 0.596 | 0.766 | 0.622 | 0.623 | 0.937 | 0.864 | 1.09 | 0.877 | 0.83
NCI-H2228 | 0.845 | 0.952 | 0.827 | 0.897 | 0.875 | 0.897 | 1.16 | 0.833 | 0.908 | 0.885 | 0.549 | 0.624 | 0.495 | 0.435 | 0.588 | 0.104 | 0.151 | 0.161 | 0.141 | 0.172
